Measured values taken from patent US6015820A, “4-Aryl-thio-pyridin-2(1H)-ones, medicines containing them and their uses in the treatment of illnesses linked to HIV” (priority 1995, dated 2000).
Where two headings read alike, the source gives them in different places.

Key:
Type in all cases: cell-based
HIV-1 LAI = experiment: anti-HIV-1 activity: replication of HIV-1 LAI on CEM-SS cells
Method: The CEM-SS and the HIV-1 resistant to Nevirapine (N119) carrying a point mutation at codon 181 of the IT, were supplied respectively by P. NARA and D. RICHMAN through the intermediary of the AIDS Research and Reference Reagent Program, Division of AIDS, NIAID, NIH (USA) (Catalogue references : No. 776 and No. 1392).
The virus production was measured by quantifying the activity of the inverse transcriptase associated with viral particles released into the culture supernatant. In short, cells were infected with 100 TCID50 for 30 minutes; after adsorption of the virus, unbound particles were removed by two washings and the cells were cultivated in the presence of different concentrations of the compounds tested for 5 days before determining the viral production. The concentration inhibiting 50% of the viral multiplication (IC50) came from the computer plot of the median effect of the dose effect results (Chou et al. Elsevier Science Publishers, Cambridge U.K. (1985), 19-28).

[1] = cytotoxicity on non-infected cells (MTT test); settings: human; Table 2; non-infected CEM-SS cells, MTT, 5 days
Method: In parallel experiments, the cytotoxicity of the molecules was measured on non-infected cells, after an incubation of 5 days in the presence of these molecules, by using a […] titration (MTT test) based on the ability of the mitochondrial dehydrogenases of the living cells to reduce 3-(4,5-dimethylthiazol-2-yl)-2,5-diphenyltetrazolium bromide in formazan (Mosmann et al. J. Immunol. Methods ([…]), 65, 55-63). The concentration cytotoxic at 50% (CC50) is the concentration at which the DO540 has been reduced to half and is calculated by using the program mentioned above.

isolated virion HIV-1LAI = experiment: infectivity of the isolated virion after treatment with inhibitors (HT4LacZ cells)
Method: H9 cells chronically infected with HIV-1LAI (10^8 /ml) were cocultivated with MT4 cells (10^8 /ml) for 48 hours in an RMPI medium supplemented by 10% of calf foetal serum (CFS). The cells were then removed by centrifugation and then the supernatant liquid was filtered (0.45 μm) to remove residual cells and cell debris.
After having been incubated with the various inhibitors, the viral supernatants (200 μl) were deposited in the filtering part of a VectaSpin tube (WHATMAN) fitted with an ANAPORE membrane of porosity 0.02 μm. For 10 minutes they were subjected to centrifugation, the acceleration of which reached 6000 g at the filtering membrane. The viral residuums thereby obtained (10-15 μl ) were washed 3 times under the same conditions with 500 μl of RPMI then restored to their initial volumes with RPMI containing 10% of CFS.
The HT4LacZ-1 cells were kept in a DMEM medium (glucose 4.5 g/l) supplemented with 10% of calf foetal serum in the presence of Gentamycin (50 mg/l). These cells stemmed from Hela cells in which had been cloned, on the one hand the gene coding for the human CD4 so as to render them susceptible to infection by the HIV (Chesebro and Wehrly, 1988, J. Virol., 62, 3779-3788), and on the other hand the gene for β-Galactosidase which, placed under the dependent of the LTR of the HIV-1 served as a marker for the viral infection (Rocancourt et al. (1990) J. Virol. 1990 64-6, 2660-2688). When the virus infects such cells after its integration into the cellular genome, the production of the regulatory protein TAT activates the LTR of the HIV. The result is an activation of the gene of β-Galactosidase which leads to its production in the intracellular medium and more particularly in the nucleus. It is this protein that serves as a marker of the infection.
The evening of day 0, the HT4LacZ-1 cells were diluted at the rate of 75000 cells per ml of medium. 100 μl of this suspension was then distributed over a flat bottomed plate with 96 wells and was cultivated overnight at 37° C. (5% of CO2).
The morning of day 1, the supernatant liquid was removed by aspiration. Each well was then complemented with 200 μl of the viral supernatant dilutions to be tested. Each dilution was made in a DMEM medium (glucose 4.5 g/l) supplemented with 10% of CFS. The plates were then placed in an environment at 37° C. in the presence of 5% of CO2.
After 48 hours of culture, the supernatant liquid was aspirated, then each well was washed 3 times in PBS before being complemented with 200 μl of developing buffer (Tris-HCl 50 mM pH=8.5, ONPG 5 mg/ml β-mercapto-ethanol 7 μl/ml Triton×100 0.05%). After 4 hours of incubation at 37° C., the optical density of each well was measured.
The concentration of each of the inhibitors of the IT of the HIV-1 was adjusted to 50 mM in DMSO. The later dilutions were carried out on RPMI 1640. 2 μl of suitable dilutions of each of these inhibitors were added to 198 μl of a freshly unfrozen viral suspension. After 3 hours of incubation at ambient temperature, these suspensions were filtered on 0.02 μ VecraSpin tubes, then washed 3 times with 500 μl of RPMI 1640. The viral residuums were then adjusted to 200 μL with the culture medium (RPMI-10% CFS), then tested with regard to their infectivity on HT4LacZ cells.

[2] = Human immunodeficiency virus 1, 120 h, Table 2, HIV-1 LAI, CEM-SS cells, 5 days, read-out: IC50, anti-HIV-1 activity
[3] = Table 2, HIV-1 LAI, CEM-SS cells
[4] = Human immunodeficiency virus 1, 3 h, read-out: Activity of the isolated virions after treatment
[5] = Human immunodeficiency virus 1, 1 μM inhibitor, 3 h, 100 TCID50, compared with viral supernatant subjected to same treatments, mean of 1 to 4 experiments, read-out: Activity of the isolated virions after treatment
[6] = Human immunodeficiency virus 1, 10 μM inhibitor, 3 h, 100 TCID50, compared with viral supernatant subjected to same treatments, mean of 1 to 4 experiments, read-out: Activity of the isolated virions after treatment

| IC50 (HIV-1 LAI; [2]) [µM] | Compound | SI (selectivity index) (HIV-1 LAI; [3]) | CC50 at 120 h [1] [µM] | also measured |
| --- | --- | --- | --- | --- |
| 56 | Cc1c[nH]c(=O)c([N+](=O)[O-])c1Sc1nccn1C [Compound 9g, 5-methyl-3-nitro-4-(N-methylimidazol-2-yl)thio-pyridin-2(1H)-one] | > 1 | 68.5 |  |
| 43.5 | Cc1c[nH]c(=O)c([N+](=O)[O-])c1Sc1nc2ccccc2[nH]1 [Compound 9c, 5-methyl-3-nitro-4-(benzimidazol-2-yl)thiopyridin-2(1H)-one] | > 1 | 54.5 |  |
|  | Cc1cn([C@H]2C=C[C@@H](CO)O2)c(=O)[nH]c1=O [d4T] |  |  | activity at 1 µM (isolated virion HIV-1LAI; [4]): 130%; activity at 10 µM (isolated virion HIV-1LAI; [4]): 127%; activity on the isolated virion (in words) (isolated virion HIV-1LAI): totally inactive |
| 5.5 | Cc1c[nH]c(=O)c([N+](=O)[O-])c1Sc1nc2ccccc2o1 [Compound 9d, 5-methyl-3-nitro-4-(benzoxazol-2-yl)thiopyridin-2(1H)-one] | > 2 | 16 |  |
|  | Cc1ccnc2c1NC(=O)c1cccnc1N2C1CC1 [Nevirapine] |  |  | activity at 0.1 µM (isolated virion HIV-1LAI; Human immunodeficiency virus 1, 0.1 μM inhibitor, 3 h, 100 TCID50, compared with viral supernatant subjected to same treatments, mean of 1 to 4 experiments, read-out: Activity of the isolated virions after treatment): 86%; activity at 1 µM (isolated virion HIV-1LAI; [5]): 86%; activity at 10 µM (isolated virion HIV-1LAI; [6]): 111%; activity on the isolated virion (in words) (isolated virion HIV-1LAI): totally inactive |
|  | Nc1ccn([C@@H]2CS[C@H](CO)O2)c(=O)n1 [Compound 3TC] |  |  | activity at 1 µM (isolated virion HIV-1LAI; [5]): 100%; activity at 10 µM (isolated virion HIV-1LAI; [6]): 100%; activity on the isolated virion (in words) (isolated virion HIV-1LAI): totally inactive |
|  | O=c1[nH]cnc2c1ncn2[C@H]1CC[C@@H](CO)O1 [ddl] |  |  | activity at 1 µM (isolated virion HIV-1LAI; [5]): 100%; activity at 10 µM (isolated virion HIV-1LAI; [6]): 100%; activity on the isolated virion (in words) (isolated virion HIV-1LAI): totally inactive |
| > 10 | Cc1cnc(O)c([N+](=O)[O-])c1Sc1ccccc1 [Compound 7d, 5-methyl-3-nitro-4-phenylthio-pyridin-2(1H)-one] |  | > 10 |  |
| 0.005 | CCOCc1c[nH]c(=O)c([N+](=O)[O-])c1Sc1cc(C)cc(C)c1 [Compound 7g, 5-ethoxymethyl-3-nitro-4-(3', 5'-dimethylphenyl)thio-pyridin-2(1H)-one] | > 2000 | > 10 |  |
| 17 | Cc1c[nH]c(=O)c([N+](=O)[O-])c1SC1=NCCS1 [Compound 9f, 5-methyl-3-nitro-4-(thiazolin-2-yl) thio-pyridin-2(1H)-one] | > 1 | 21.5 |  |
| 18 | Cc1c[nH]c(=O)c([N+](=O)[O-])c1Sc1ccccn1 [Compound 9h, 5-methyl-3-nitro-4-(2-pyridyl) thio-pyridin-2(1H)-one] | > 1 | 28.5 |  |
| 8 | Cc1cnc(O)c(N)c1Sc1nc2ccccc2o1 [Compound 10, 3-amino-5-methyl-4-(benzoxazol-2-yl)thio-pyridin-2(1H)-one] |  | 7.5 |  |
| > 10 | Cc1cc(C)cc(Sc2c(C)cnc(O)c2NC(=O)Cc2ccccc2)c1 [Compound 11e, 5-methyl-3-phenylacetamido-4-(3', 5'-dimethylphenyl)thio-pyridin-2(1H)-one] |  | > 10 |  |
| > 100 | Cc1cc(O)nc(Sc2c(C)cnc(O)c2[N+](=O)[O-])n1 [Compound 9b, 5-methyl-3-nitro-4-(4'-hydroxy-6'-methylpyrimidin-2-yl)thiopyridin-2(1H)-one] |  | > 100 |  |
| 7.5 | CCOC(=O)Nc1c(Sc2cc(C)cc(C)c2)c(C)c[nH]c1=O [Compound 11f, 5-methyl-3-N-ethoxycarbamoyl-4-(3', 5'-dimethylphenyl)thio-pyridin-2(1H)-one] | > 13 | > 100 |  |
| 14.5 | Cc1cnc(O)c([N+](=O)[O-])c1Sc1nc2ccccc2s1 [Compound 9e, 5-methyl-3-nitro-4-(benzothiazol-2-yl)thio-pyridin-2(1H)-one] |  | 13.5 |  |
| 0.02 | CCOCc1c[nH]c(=O)c(N)c1Sc1cc(C)cc(C)c1 [Compound 8g, 3-amino-5-ethoxymethyl-4-(3', 5'-dimethylphenyl)thio-pyridin-2(1H)-one] | > 500 | > 10 |  |
| 17.5 | Cc1cc(C)nc(Sc2c(C)c[nH]c(=O)c2[N+](=O)[O-])n1 [Compound 9a, 5-methyl-3-nitro-4-(4', 6'-dimethylpyrimidin-2-yl)thiopyridin-2(1H)-one] | > 1 | 19.5 |  |
| > 10 | CCCCCCC(=O)Nc1c(Sc2cc(C)cc(C)c2)c(C)c[nH]c1=O [Compound 11d, 3-heptanamido-5-methyl-4-(3', 5'-dimethylphenyl)thio-pyridin-2(1H)-one] |  | > 10 |  |
| 6.6 | Cc1cc(C)cc(Sc2c(C)c[nH]c(=O)c2NC=O)c1 [Compound 11a, 3-formamido-5-methyl-4-(3', 5'-dimethylphenyl)thio-pyridin-2(1H)-one] | > 15 | > 100 |  |

| Compound | IC50 (HIV-1 LAI; [2]) [µM] | SI (selectivity index) (HIV-1 LAI; [3]) | CC50 at 120 h [1] [µM] | also measured |
| --- | --- | --- | --- | --- |
| Cc1cn([C@H]2C[C@H](N=[N+]=[N-])[C@@H](CO)O2)c(=O)[nH]c1=O [AZT, reference compound] | 0.003 | > 33333 | > 100 | IC50 (HIV-1 LAI; Human immunodeficiency virus 1, CEM-SS, Table 4, HIV-1 (LA1)/CEMSS, read-out: IC50): 0.00084 µM; activity at 1 µM (isolated virion HIV-1LAI; [4]): 99%; activity at 10 µM (isolated virion HIV-1LAI; [4]): 99%; activity on the isolated virion (in words) (isolated virion HIV-1LAI): totally inactive |
